Experimental findings from patent US20250388565A1, “ESTROGEN RECEPTOR ALPHA DEGRADERS AND METHODS OF USE THEREOF” (Relay Therapeutics, Inc., priority 2022, published 2025) are described below.

The assay concerns the target T1, ERα protein (HiBiT-tagged) in ESR1_HiBiT KI MCF7 cells (Homo sapiens, UniProt P03372).
T1 sequence (P03372 1-595): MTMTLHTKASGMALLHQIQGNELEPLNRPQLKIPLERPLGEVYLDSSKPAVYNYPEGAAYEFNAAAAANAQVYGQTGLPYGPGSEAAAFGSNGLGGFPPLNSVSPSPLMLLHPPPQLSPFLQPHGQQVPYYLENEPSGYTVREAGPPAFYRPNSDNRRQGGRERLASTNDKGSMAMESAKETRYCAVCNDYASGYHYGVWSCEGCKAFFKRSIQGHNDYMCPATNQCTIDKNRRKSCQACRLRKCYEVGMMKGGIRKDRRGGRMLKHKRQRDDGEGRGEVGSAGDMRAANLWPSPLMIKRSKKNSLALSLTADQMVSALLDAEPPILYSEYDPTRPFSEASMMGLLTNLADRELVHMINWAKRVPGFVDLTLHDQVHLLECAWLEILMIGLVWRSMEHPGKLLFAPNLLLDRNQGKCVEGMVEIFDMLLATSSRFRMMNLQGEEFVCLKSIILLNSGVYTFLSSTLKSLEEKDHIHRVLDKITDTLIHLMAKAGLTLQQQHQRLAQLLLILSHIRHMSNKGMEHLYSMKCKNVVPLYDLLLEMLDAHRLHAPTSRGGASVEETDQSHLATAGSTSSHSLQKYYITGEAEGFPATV
In words: Nano Glo HiBiT Lytic Degradation Assay. Type of assay: cell-based. To be noted: 6 hours with compound, 14-point dose response 1:3, bell-shape curve fit, half-maximal effect of first Hill model, read-out: MCF7 ESR1 HiBiT - (DC50). As for the experimental part: Selected compounds of the present disclosure were tested in a Nano Glo HiBiT Lytic Degradation Assay to measure the level of ERα protein degradation in MCF7 cells.
Cell culture: ESR1_HiBiT KI MCF7 cells were maintained in growth media without antibiotics. Cells were maintained in exponential growth phase, between 40% and 90% confluency.
Cell seeding: Cells were counted using a Vi-Cell and seeded in a 384-well flat-bottom microplate (cell culture-treated) at 4000 cells/well in 25 μL of growth medium using a BioTek MultiFlo Multimode Dispenser. Plates were incubated for 24 h at 37° C., 5% CO2, >95% relative humidity.
Compound preparation: Compounds were screened as 14-point dose response curves 1:3 dilutions. DMSO is used as the vehicle control and all wells were normalized to the same final DMSO concentration (0.1% v/v). Compounds were dosed using an Echo Acoustic Liquid Handler, 25 nL of 1000× (10 mM top concentration) DMSO stock/well. Cells were incubated with compounds for 6 hours at 37° C., 5% CO2, >95% relative humidity. Each compound was run in duplicate.
Nano Glo HiBiT Lytic Degradation Assay: HiBiT-tagged ERα protein levels were quantified using a Nano Glo HiBiT Lytic Degradation Assay following the manufacturer's protocol. Briefly, the Nano-Glo® HiBiT Lytic Reagent was prepared by diluting the LgBiT Protein reagent (1:100) and the Nano-Glo® HiBiT Lytic Substrate (1:50) into Nano-Glo® HiBiT Lytic Buffer at room temperature. The 384-well microplate were equilibrated to room temperature and 25 μL of Nano-Glo® HiBiT Lytic Reagent was added to each well. Samples were mixed by placing the 384-well microplate on an orbital shaker for 10 minutes. Luminescence was measured using an EnVision 2105 Multimode Plate Reader.
Data processing and analysis: Background signal (wells containing growth medium without cells) was subtracted from individual relative light units (RLU) values and the resulting values were normalized to the DMSO control well values. Dose responses were analyzed with Genedata Screener® using a bell-shape curve fit and the concentrations corresponding to the half-maximal effect of the first Hill model were used as DC50 values.
On to `O=C1CC[C@H](N2Cc3cc(N4CCN(CC5CCN(c6ccc([C@H]7c8ccc(O)cc8CC[C@H]7c7ccc8c(c7)CCCC8)cc6)CC5)CC4)ccc3C2=O)C(=O)N1` (single isomer, unassigned) [Compound I-60], for which the 50% degradation concentration (DC50) came out at 1 nM.

For the compound `O=C1CC[C@H](N2Cc3cc(N4CCN(CC5CCN(c6ccc([C@@H]7c8ccc(O)cc8CO[C@@H]7c7ccc8c(c7)CCC8)cc6)CC5)CC4)ccc3C2=O)C(=O)N1` [Compound I-365, (S)-3-(5-(4-((1-(4-((3S,4R)-3-(2,3-dihydro-1H-inden-5-yl)-7-hydroxyisochroman-4-yl)phenyl)piperidin-4-yl)methyl)piperazin-1-yl)-1-oxoisoindolin-2-yl)piperidine-2,6-dione], the DC50 worked out at 0.24 nM.

On to `C[C@H]1Cc2cc(O)ccc2[C@@H](c2ccc(N3CCC(CN4CCN(c5ccc6c(c5)CN([C@H]5CCC(=O)NC5=O)C6=O)CC4)CC3)cc2)[C@H]1c1ccccc1` [Compound I-174, (S)-3-(5-(4-((1-(4-((1R,2S,3S)-6-hydroxy-3-methyl-2-phenyl-1,2,3,4-tetrahydronaphthalen-1-yl)phenyl)piperidin-4-yl)methyl)piperazin-1-yl)-1-oxoisoindolin-2-yl)piperidine-2,6-dione], for which the DC50 came out at 18 nM.

As for `O=C1CC[C@@H](N2Cc3cc(N4CCN(CC5CCN(c6ccc([C@@H]7c8ccc(O)cc8CC[C@@H]7c7ccc(F)cc7)cc6)CC5)CC4)ccc3C2=O)C(=O)N1` [II-110], the 50% degradation concentration (DC50) was 0.88 nM.

Regarding `O=C1CCC(N2Cc3cc(N4CCN(CC5CCN(c6ccc([C@@H]7c8ccc(O)cc8C(F)(F)C[C@@H]7c7ccc(F)cc7)cc6)CC5)CC4)ccc3C2=O)C(=O)N1` (stereo partly drawn) [Compound I-309, 3-(5-(4-((1-(4-((1R,2S)-4,4-difluoro-2-(4-fluorophenyl)-6-hydroxy-1,2,3,4-tetrahydronaphthalen-1-yl)phenyl)piperidin-4-yl)methyl)piperazin-1-yl)-1-oxoisoindolin-2-yl)piperidine-2,6-dione], the DC50 was found to be 0.39 nM.

Consider `CC(C)C[C@H]1CC(F)(F)c2cc(O)ccc2[C@H]1c1ccc(N2CCC(CN3CCN(c4ccc5c(c4)CN([C@H]4CCC(=O)NC4=O)C5=O)CC3)CC2)cc1` [Compound I-197, (S)-3-(5-(4-((1-(4-((1R,2S)-4,4-difluoro-6-hydroxy-2-isobutyl-1,2,3,4-tetrahydronaphthalen-1-yl)phenyl)piperidin-4-yl)methyl)piperazin-1-yl)-1-oxoisoindolin-2-yl)piperidine-2,6-dione], for which the DC50 stood at 0.49 nM.

For the compound `Cc1ccc(F)cc1[C@H]1OCc2cc(O)ccc2[C@H]1c1ccc(N2CCC(CN3CCN(c4ccc5c(c4)CN([C@H]4CCC(=O)NC4=O)C5=O)CC3)CC2)cc1` (single isomer, unassigned) [Compound I-357], the 50% degradation concentration (DC50) was 0.51 nM.

As to `O=C1CC[C@H](N2Cc3cc(N4CCN(CC5CCN(c6ccc([C@H]7c8ccc9[nH]ncc9c8CC[C@H]7c7ccccc7)cc6)CC5)CC4)ccc3C2=O)C(=O)N1` (single isomer, unassigned) [Compound I-44], the DC50 is 7 nM.

As to `O=C1CC[C@H](N2Cc3cc(N4CCN(C(=O)C5CCN(c6ccc([C@@H]7c8ccc(O)cc8CC[C@@H]7c7ccccc7)cc6)CC5)CC4)ccc3C2=O)C(=O)N1` [II-68], the half-maximal degradation concentration (DC50) is 0.5 nM.

Take `O=C1CC[C@H](N2Cc3cc(N4CCN(CC5CCN(c6ccc([C@H]7c8ccc(O)cc8CC[C@H]7C7CCCCCC7)cc6)CC5)CC4)ccc3C2=O)C(=O)N1` [Compound I-134, (3S)-3-[5-[4-[[1-[4-[(1S,2S)-2-cycloheptyl-6-hydroxy-tetralin-1-yl]phenyl]-4-piperidyl]methyl]piperazin-1-yl]-1-oxo-isoindolin-2-yl]piperidine-2,6-dione]: the DC50 was at least 10000 nM.

In the case of `O=C1CC[C@H](N2Cc3cc(N4CCN(CC5CCN(c6ccc([C@@H]7c8ccc(O)cc8C(F)(F)C[C@@H]7CC7CCCC7)cc6)CC5)CC4)ccc3C2=O)C(=O)N1` [Compound I-196, (3S)-3-[5-[4-[[1-[4-[(1R,2S)-2-(cyclopentylmethyl)-4,4-difluoro-6-hydroxy-tetralin-1-yl]phenyl]-4-piperidyl]methyl]piperazin-1-yl]-1-oxo-isoindolin-2-yl]piperidine-2,6-dione], the DC50 was 2 nM.

For the compound `Cn1nc(C2CCC(=O)NC2=O)c2cccc(N3CCN(CC4CCN(c5ccc([C@@H]6c7ccc(O)cc7CC[C@@H]6c6ccccc6)cc5)CC4)CC3)c21` (stereo partly drawn) [Compound I-189, 3-(7-(4-((1-(4-((1R,2S)-6-hydroxy-2-phenyl-1,2,3,4-tetrahydronaphthalen-1-yl)phenyl)piperidin-4-yl)methyl)piperazin-1-yl)-1-methyl-1H-indazol-3-yl)piperidine-2,6-dione], the half-maximal degradation concentration (DC50) turned out to be 2 nM.

For `O=C1CCC(c2ccc3c(c2)CN(C2CCN(CC4CCN(c5ccc([C@H]6c7ccc(O)cc7CC[C@H]6c6ccccc6)cc5)CC4)CC2)CC3)C(=O)N1` (stereo in doubt) [Compound I-185, 3-(2-(1-((1-(4-((1S,2R)-6-hydroxy-2-phenyl-1,2,3,4-tetrahydronaphthalen-1-yl)phenyl)piperidin-4-yl)methyl)piperidin-4-yl)-1,2,3,4-tetrahydroisoquinolin-7-yl)piperidine-2,6-dione], the DC50 was found to be 737 nM.

For the compound `O=C1CC[C@H](N2Cc3cc(N4CCN(CC5CCN(c6ccc([C@@H]7c8ccc(O)cc8C(F)(F)C[C@@H]7c7ccccc7)cc6F)CC5)CC4)ccc3C2=O)C(=O)N1` [Compound I-194, (S)-3-(5-(4-((1-(4-((1R,2S)-4,4-difluoro-6-hydroxy-2-phenyl-1,2,3,4-tetrahydronaphthalen-1-yl)-2-fluorophenyl)piperidin-4-yl)methyl)piperazin-1-yl)-1-oxoisoindolin-2-yl)piperidine-2,6-dione], the DC50 turned out to be 0.41 nM.

Take `O=C1CC[C@H](N2Cc3cc(N4CCN(CC5CC6CCC(C5)N6c5ccc([C@H]6c7ccc(O)cc7CC[C@H]6c6ccccc6)cc5)CC4)ccc3C2=O)C(=O)N1` (single isomer, unassigned) [II-56]: the half-maximal degradation concentration (DC50) is 0.006 nM.

Regarding `O=C1CC[C@H](N2Cc3cc(N4CCN(CC5CCN(c6ccc([C@@H]7c8ccc(O)cc8CC[C@@H]7CC(F)(F)F)cc6)CC5)CC4)ccc3C2=O)C(=O)N1` [Compound I-157, (3S)-3-[5-[4-[[1-[4-[(1R,2R)-6-hydroxy-2-(2,2,2-trifluoroethyl)tetralin-1-yl]phenyl]-4-piperidyl]methyl]piperazin-1-yl]-1-oxo-isoindolin-2-yl]piperidine-2,6-dione], the DC50 is 0.86 nM.

In the case of `O=C1CC[C@H](N2Cc3cc(N4CCN(CC5CCN(c6ccc([C@@H]7c8ccc(O)cc8CO[C@@H]7C7CC7)cc6)CC5)CC4)ccc3C2=O)C(=O)N1` (single isomer, unassigned) [Compound I-242], the DC50 stood at 3300 nM.

As to `O=C1CC[C@H](N2Cc3cc(N4CCN(CC5CCN(c6ccc([C@H]7c8ccc(O)cc8COC78CCCCC8)cc6)CC5)CC4)ccc3C2=O)C(=O)N1` [Compound I-122, (S)-3-(5-(4-((1-(4-((S)-7′-hydroxyspiro[cyclohexane-1,3′-isochroman]-4′-yl)phenyl)piperidin-4-yl)methyl)piperazin-1-yl)-1-oxoisoindolin-2-yl)piperidine-2,6-dione], the DC50 was at least 10000 nM.

In the case of `CC1(C)CCC([C@@H]2CCc3cc(O)ccc3[C@@H]2c2ccc(N3CCC(CN4CCN(c5ccc6c(c5)CN([C@H]5CCC(=O)NC5=O)C6=O)CC4)CC3)cc2)CC1` (single isomer, unassigned) [Compound I-106], the DC50 turned out to be 1030 nM.

`O=C1CC[C@H](N2Cc3cc(N4CCN(CC5CCN(c6ccc([C@H]7c8ccc(O)cc8CC[C@H]7c7ccccc7F)cc6)CC5)CC4)ccc3C2=O)C(=O)N1` (single isomer, unassigned) [II-25]: the 50% degradation concentration (DC50) stood at 1.17 nM.

`O=C1CC[C@H](N2Cc3cc(N4CCN(CC5CCN(c6ccc([C@H]7c8ccc(O)cc8CC[C@H]7C7=CCCCC7)cc6)CC5)CC4)ccc3C2=O)C(=O)N1` (single isomer, unassigned) [Compound I-416]: the half-maximal degradation concentration (DC50) is 0.44 nM.
